Laboratory results published in patent publication US20250122160A1, “PROTEIN TYROSINE PHOSPHATASE INHIBITORS AND METHODS OF USE THEREOF” (Calico Life Sciences LLC, priority 0001, published 2025).
pIC50: −log10 of the molar value.

How the values were obtained:
[1] = target: T1, His tagged full-length PTPN1 protein (Homo sapiens, UniProt P18031); assay: Mobility shift assay (MSA) to determine potency of PTPN1 inhibitors; assay type: biochemical; settings: 0.5 nM enzyme, 2 μM substrate
T1 construct: made in house
T1 sequence (P18031 with tags, fused parts or gaps): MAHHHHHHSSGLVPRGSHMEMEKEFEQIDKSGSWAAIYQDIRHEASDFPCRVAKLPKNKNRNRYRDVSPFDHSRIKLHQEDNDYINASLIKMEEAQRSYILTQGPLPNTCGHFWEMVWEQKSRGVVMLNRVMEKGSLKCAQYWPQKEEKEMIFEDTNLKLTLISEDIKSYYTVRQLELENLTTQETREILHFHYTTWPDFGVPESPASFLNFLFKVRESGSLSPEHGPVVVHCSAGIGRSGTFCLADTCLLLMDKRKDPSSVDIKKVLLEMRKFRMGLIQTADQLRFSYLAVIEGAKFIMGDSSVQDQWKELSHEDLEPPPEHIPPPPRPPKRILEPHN
Outline: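 Readout is microfluidic mobility shift (ex 488/em 530 nm) of a 2 μM OG488-labelled pTyr insulin-receptor peptide after a 10 min room-temperature reaction, following 10 min enzyme–compound preincubation. Enzyme: 0.5 nM full-length His-tagged PTPN1 in HEPES pH 7.5 buffer. IC50 fitted from % inhibition at 12 concentrations (1:3 steps).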

[2] = target: T2, His tagged PTPN2 (TC45) protein (Homo sapiens, UniProt P17706); assay: Mobility shift assay (MSA) to determine potency of PTPN2 inhibitors; assay type: biochemical; settings: 0.5 nM enzyme, 2 μM substrate
T2 construct: made in house
T2 sequence (P17706 with tags, fused parts or gaps isoform P17706-2): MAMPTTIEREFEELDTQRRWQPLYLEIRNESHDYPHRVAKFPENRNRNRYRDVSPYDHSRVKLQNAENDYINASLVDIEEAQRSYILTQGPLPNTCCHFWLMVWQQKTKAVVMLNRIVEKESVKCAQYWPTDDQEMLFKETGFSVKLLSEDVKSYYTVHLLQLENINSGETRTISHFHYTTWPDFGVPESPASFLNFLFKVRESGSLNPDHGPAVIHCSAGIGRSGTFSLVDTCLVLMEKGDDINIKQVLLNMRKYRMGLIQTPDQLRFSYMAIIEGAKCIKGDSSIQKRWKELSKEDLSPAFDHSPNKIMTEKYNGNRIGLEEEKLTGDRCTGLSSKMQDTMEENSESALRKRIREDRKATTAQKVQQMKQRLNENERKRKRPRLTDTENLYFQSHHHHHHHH
Outline: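 His-tagged human PTPN2 (TC45), 0.5 nM, preincubated 10 min at room temperature with compound (12-point, 1:3 dilutions) in HEPES pH 7.5 buffer with EGTA, EDTA, Tween 20 and DTT. Then 2 μM OG488-labelled phospho-insulin-receptor peptide was added for 10 min and quenched. % conversion was read by mobility shift, and IC50 came from % inhibition.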

Row | pIC50 [1] | Compound | pIC50 [2]
1 | 7.00 to 8.00 | O=C1CN(c2c(O)cc3c(c2F)C[C@H](NCC2CCCCO2)CC3)S(=O)(=O)N1 (stereo partly drawn) [Compound 350, 5-[(7R)-1-fluoro-3-hydroxy-7-{[(oxan-2-yl)methyl]amino}-5,6,7,8-tetrahydronaphthalen-2-yl]-1λ^6,2,5-thiadiazolidine-1,1,3-trione] | 8.00 to 9.00
2 | 8.00 to 9.00 | O=C1CN(c2c(O)cc3c(c2F)C[C@H](NCC2CCCOC2)CC3)S(=O)(=O)N1 (stereo partly drawn) [Compound 352, 5-[(7R)-1-fluoro-3-hydroxy-7-{[(oxan-3-yl)methyl]amino}-5,6,7,8-tetrahydronaphthalen-2-yl]-1λ^6,2,5-thiadiazolidine-1,1,3-trione] | 8.00 to 9.00
3 | 8.00 to 9.00 | O=C1CN(c2c(O)cc3c(c2F)C[C@H](NCCC2CCOC2)CC3)S(=O)(=O)N1 (stereo partly drawn) [Compound 356, 5-[(7R)-1-fluoro-3-hydroxy-7-{[2-(oxolan-3-yl)ethyl]amino}-5,6,7,8-tetrahydronaphthalen-2-yl]-1λ^6,2,5-thiadiazolidine-1,1,3-trione] | > 9.00
4 | 7.00 to 8.00 | CC(C)(CN[C@@H]1CCc2cc(O)c(N3CC(=O)NS3(=O)=O)c(F)c2C1)CN1CCCC1 [Compound 358, 5-[(7R)-7-{[2,2-dimethyl-3-(pyrrolidin-1-yl)propyl]amino}-1-fluoro-3-hydroxy-5,6,7,8-tetrahydronaphthalen-2-yl]-1λ^6,2,5-thiadiazolidine-1,1,3-trione] | 7.00 to 8.00
5 | 7.00 to 8.00 | COCCCCN[C@@H]1CCc2cc(O)c(N3CC(=O)NS3(=O)=O)c(F)c2C1 [Compound 360, 5-{(7R)-1-fluoro-3-hydroxy-7-[(4-methoxybutyl)amino]-5,6,7,8-tetrahydronaphthalen-2-yl}-1λ^6,2,5-thiadiazolidine-1,1,3-trione] | 8.00 to 9.00
6 | 7.00 to 8.00 | O=C1CN(c2c(O)cc3c(c2F)C[C@H](NCC2CCOC2)CC3)S(=O)(=O)N1 (stereo partly drawn) [Compound 361, 5-[(7R)-1-fluoro-3-hydroxy-7-{[(oxolan-3-yl)methyl]amino}-5,6,7,8-tetrahydronaphthalen-2-yl]-1λ^6,2,5-thiadiazolidine-1,1,3-trione] | 8.00 to 9.00
7 | 7.00 to 8.00 | COCCCN[C@@H]1CCc2cc(O)c(N3CC(=O)NS3(=O)=O)c(F)c2C1 [Compound 363, 5-{(7R)-1-fluoro-3-hydroxy-7-[(3-methoxypropyl)amino]-5,6,7,8-tetrahydronaphthalen-2-yl}-1λ^6,2,5-thiadiazolidine-1,1,3-trione] | 8.00 to 9.00
8 | 7.00 to 8.00 | O=C1CN(c2c(O)cc3c(c2F)C[C@H](NCCC2CCOCC2)CC3)S(=O)(=O)N1 [Compound 365, 5-[(7R)-1-fluoro-3-hydroxy-7-{[2-(oxan-4-yl)ethyl]amino}-5,6,7,8-tetrahydronaphthalen-2-yl]-1λ^6,2,5-thiadiazolidine-1,1,3-trione] | 8.00 to 9.00
9 | 7.00 to 8.00 | O=C1CN(c2c(O)cc3c(c2F)C[C@H](NCC2COC2)CC3)S(=O)(=O)N1 [Compound 366, 5-[(7R)-1-fluoro-3-hydroxy-7-{[(oxetan-3-yl)methyl]amino}-5,6,7,8-tetrahydronaphthalen-2-yl]-1λ^6,2,5-thiadiazolidine-1,1,3-trione] | 7.00 to 8.00

The remaining lines, values behind:

Row | Compound | pIC50 [1] | pIC50 [2]
10 | O=C1CN(c2c(O)cc3c(c2F)C[C@H](NCc2cccnc2)CC3)S(=O)(=O)N1 [Compound 347, 5-[(7R)-1-fluoro-3-hydroxy-7-{[(pyridin-3-yl)methyl]amino}-5,6,7,8-tetrahydronaphthalen-2-yl]-1λ^6,2,5-thiadiazolidine-1,1,3-trione] | 7.00 to 8.00 | 7.00 to 8.00
11 | CC(CN[C@@H]1CCc2cc(O)c(N3CC(=O)NS3(=O)=O)c(F)c2C1)C(F)(F)F (stereo partly drawn) [Compound 348, 5-{(7R)-1-fluoro-3-hydroxy-7-[(3,3,3-trifluoro-2-methylpropyl)amino]-5,6,7,8-tetrahydronaphthalen-2-yl}-1λ^6,2,5-thiadiazolidine-1,1,3-trione] | 7.00 to 8.00 | 8.00 to 9.00
12 | O=C1CN(c2c(O)cc3c(c2F)C[C@H](NCc2cccnn2)CC3)S(=O)(=O)N1 [Compound 349, 5-[(7R)-1-fluoro-3-hydroxy-7-{[(pyridazin-3-yl)methyl]amino}-5,6,7,8-tetrahydronaphthalen-2-yl]-1λ^6,2,5-thiadiazolidine-1,1,3-trione] | 7.00 to 8.00 | 7.00 to 8.00
13 | Cc1cc(CN[C@@H]2CCc3cc(O)c(N4CC(=O)NS4(=O)=O)c(F)c3C2)no1 [Compound 351, 5-[(7R)-1-fluoro-3-hydroxy-7-{[(5-methyl-1,2-oxazol-3-yl)methyl]amino}-5,6,7,8-tetrahydronaphthalen-2-yl]-1λ^6,2,5-thiadiazolidine-1,1,3-trione] | 7.00 to 8.00 | 7.00 to 8.00
14 | N#CC1CC1CN[C@@H]1CCc2cc(O)c(N3CC(=O)NS3(=O)=O)c(F)c2C1 (stereo partly drawn) [Compound 353, 2-({[(2R)-8-fluoro-6-hydroxy-7-(1,1,4-trioxo-1λ^6,2,5-thiadiazolidin-2-yl)-1,2,3,4-tetrahydronaphthalen-2-yl]amino}methyl)cyclopropane-1-carbonitrile] | 7.00 to 8.00 | 8.00 to 9.00
15 | CCOCCCN[C@@H]1CCc2cc(O)c(N3CC(=O)NS3(=O)=O)c(F)c2C1 [Compound 354, 5-{(7R)-7-[(3-ethoxypropyl)amino]-1-fluoro-3-hydroxy-5,6,7,8-tetrahydronaphthalen-2-yl}-1λ^6,2,5-thiadiazolidine-1,1,3-trione] | 7.00 to 8.00 | 8.00 to 9.00
16 | O=C1CN(c2c(O)cc3c(c2F)C[C@H](NCC2(C(F)F)CC2)CC3)S(=O)(=O)N1 [Compound 355, 5-[(7R)-7-({[1-(difluoromethyl)cyclopropyl]methyl}amino)-1-fluoro-3-hydroxy-5,6,7,8-tetrahydronaphthalen-2-yl]-1λ^6,2,5-thiadiazolidine-1,1,3-trione] | 7.00 to 8.00 | 8.00 to 9.00
17 | Cn1cncc1CN[C@@H]1CCc2cc(O)c(N3CC(=O)NS3(=O)=O)c(F)c2C1 [Compound 357, 5-[(7R)-1-fluoro-3-hydroxy-7-{[(1-methyl-1H-imidazol-5-yl)methyl]amino}-5,6,7,8-tetrahydronaphthalen-2-yl]-1λ^6,2,5-thiadiazolidine-1,1,3-trione] | 7.00 to 8.00 | 7.00 to 8.00
18 | O=C1CN(c2c(O)cc3c(c2F)C[C@H](NCc2ccc(CO)o2)CC3)S(=O)(=O)N1 [Compound 359, 5-[(7R)-1-fluoro-3-hydroxy-7-({[5-(hydroxymethyl)furan-2-yl]methyl}amino)-5,6,7,8-tetrahydronaphthalen-2-yl]-1λ^6,2,5-thiadiazolidine-1,1,3-trione] | 7.00 to 8.00 | 7.00 to 8.00
19 | O=C1CN(c2c(O)cc3c(c2F)C[C@H](NCC2CC2(F)F)CC3)S(=O)(=O)N1 (stereo partly drawn) [Compound 362, 5-[(7R)-7-{[(2,2-difluorocyclopropyl)methyl]amino}-1-fluoro-3-hydroxy-5,6,7,8-tetrahydronaphthalen-2-yl]-1λ^6,2,5-thiadiazolidine-1,1,3-trione] | 7.00 to 8.00 | 7.00 to 8.00
20 | O=C1CN(c2c(O)cc3c(c2F)C[C@H](NCc2cnco2)CC3)S(=O)(=O)N1 [Compound 364, 5-[(7R)-1-fluoro-3-hydroxy-7-{[(1,3-oxazol-5-yl)methyl]amino}-5,6,7,8-tetrahydronaphthalen-2-yl]-1λ^6,2,5-thiadiazolidine-1,1,3-trione] | 7.00 to 8.00 | 7.00 to 8.00
